Assays:
[1] = Acute oral toxicity in female kunming mouse assessed as effect on kidney histopathology at 2000 mg/kg measured once daily for 14 days; format: organism-based; details: in vivo, 336 h, time 14 day
RAW264.7 [2] = assay: Cytotoxicity against mouse RAW 264.7 cells assessed as decreased cell viability at 100 uM measured after 18 hrs by MTT assay; format: cell-based; details: raw264.7, 18 h
[3] = Acute oral toxicity in female kunming mouse assessed as survival at 2000 mg/kg measured once daily for 14 days; format: organism-based; details: in vivo, 336 h, time 14 day
Mus musculus [4] = assay: Analgesic activity in mouse model of acetic-acid induced writhing assessed as inhibition of writhing at 30 mg/kg, po once daily administered for 3 days prior to acetic acid injection measured after 20 mins relative to control; format: functional; details: 72 h, time 3 day
Mus musculus [5] = assay: Antiinflammatory activity in mouse xylene induced ear edema model assessed as inhibition of auricular edemas at 30 mg/kg, po once daily administered for 3 days prior to xylene stimulation and measured after 30 mins relative to control; format: functional; details: 72 h, time 3 day
Mus musculus [6] = assay: Antiinflammatory activity in mouse xylene induced ear edema model assessed as ear weight difference at 30 mg/kg, po once daily administered for 3 days prior to xylene stimulation and measured after 30 mins (reference value: 13.64 =/- 2.55 mg); format: functional; details: time 3 day
[7] = Acute oral toxicity in female kunming mouse assessed as effect on liver histopathology at 2000 mg/kg measured once daily for 14 days; format: organism-based; details: in vivo, 336 h, time 14 day
RAW264.7 [8] = assay: Inhibition of LPS induced NO production in mouse RAW264.7 cells at 100 uM in the presence of 500 ng/mL LPS measured after 24 hrs by Griess reagent based assay relative to control; format: functional
RAW264.7 [9] = assay: Inhibition of LPS induced NO production in mouse RAW264.7 cells at 1 uM in the presence of 500 ng/mL LPS measured after 24 hrs by Griess reagent based assay relative to control; format: functional
[10] = Selectivity index, ratio of IC50 for ovine COX-1 to IC50 for human COX-2
[11] = biological target: T1, Prostaglandin G/H synthase 1 (Ovis aries, UniProt P05979); assay: Inhibition of ovine COX-1 assessed as production of PGE2 using arachidonic acid as a substrate preincubated for 60 mins followed by substrate addition and measured after 2 mins by ELISA analysis
T1 sequence (P05979 whole entry): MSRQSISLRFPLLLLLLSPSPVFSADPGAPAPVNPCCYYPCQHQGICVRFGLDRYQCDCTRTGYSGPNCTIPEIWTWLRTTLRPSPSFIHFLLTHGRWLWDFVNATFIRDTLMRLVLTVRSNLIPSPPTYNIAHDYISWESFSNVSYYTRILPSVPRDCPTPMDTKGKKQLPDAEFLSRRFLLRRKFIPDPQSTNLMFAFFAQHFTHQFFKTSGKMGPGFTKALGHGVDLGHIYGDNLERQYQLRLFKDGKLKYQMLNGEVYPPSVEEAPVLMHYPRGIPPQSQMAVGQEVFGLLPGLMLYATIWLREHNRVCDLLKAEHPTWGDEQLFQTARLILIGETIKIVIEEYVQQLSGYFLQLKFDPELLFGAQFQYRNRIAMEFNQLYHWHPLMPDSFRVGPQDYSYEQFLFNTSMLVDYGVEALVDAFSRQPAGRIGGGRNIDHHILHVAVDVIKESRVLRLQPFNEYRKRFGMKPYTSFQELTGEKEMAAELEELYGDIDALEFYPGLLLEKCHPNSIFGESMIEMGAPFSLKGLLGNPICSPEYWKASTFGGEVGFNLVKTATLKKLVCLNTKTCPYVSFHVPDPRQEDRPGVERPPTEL

[12] = biological target: T2, Prostaglandin G/H synthase 1 (Ovis aries) (UniProt P05979); assay: Inhibition of ovine COX-1 assessed as production of PGE2 using arachidonic acid as a substrate preincubated for 60 mins at 100 uM followed by substrate addition and measured after 2 mins by ELISA analysis relative to control; details: time 62.0 min
T2 sequence (whole entry): T1 sequence (P05979 whole entry)

[13] = Acute oral toxicity in female kunming mouse assessed as signs of gross toxicity measured once daily for 14 days; details: in vivo, time 14 day
[14] = biological target: T2, Prostaglandin G/H synthase 1 (Ovis aries); assay: Inhibition of ovine COX-1 assessed as production of PGE2 using arachidonic acid as a substrate preincubated for 60 mins at 10 uM followed by substrate addition and measured after 2 mins by ELISA analysis relative to control
RAW264.7 [15] = assay: Inhibition of LPS induced NO production in mouse RAW264.7 cells at 0.1 uM in the presence of 500 ng/mL LPS measured after 24 hrs by Griess reagent based assay relative to control; format: functional
[16] = Solubility of the compound in water; format: physicochemical; details: buffer
RAW264.7 [17] = assay: Cytotoxicity against mouse RAW 264.7 cells assessed as decreased cell viability at 0.01 to 10 uM measured after 18 hrs by MTT assay; format: cell-based; details: raw264.7, 18 h, dose 0.01-10 µM
RAW264.7 [18] = assay: Inhibition of LPS induced NO production in mouse RAW264.7 cells at 0.01 uM in the presence of 500 ng/mL LPS measured after 24 hrs by Griess reagent based assay relative to control; format: functional
[19] = biological target: T2, Prostaglandin G/H synthase 1 (Ovis aries); assay: Inhibition of ovine COX-1 assessed as production of PGE2 using arachidonic acid as a substrate preincubated for 60 mins at 0.1 uM followed by substrate addition and measured after 2 mins by ELISA analysis relative to control
[20] = biological target: T2, Prostaglandin G/H synthase 1 (Ovis aries); assay: Inhibition of ovine COX-1 assessed as production of PGE2 using arachidonic acid as a substrate preincubated for 60 mins at 1 uM followed by substrate addition and measured after 2 mins by ELISA analysis relative to control
RAW264.7 [21] = assay: Inhibition of LPS induced NO production in mouse RAW264.7 cells at 10 uM in the presence of 500 ng/mL LPS measured after 24 hrs by Griess reagent based assay relative to control; format: functional
Mus musculus [22] = assay: Analgesic activity in mouse model of acetic-acid induced writhing assessed as number of writhes at 30 mg/kg, po once daily administered for 3 days prior to acetic acid injection measured after 20 mins (reference value: 29.13+/-9.36); format: functional; details: time 3 day
[23] = biological target: T3, Prostaglandin G/H synthase 2 (Homo sapiens, UniProt P35354); assay: Inhibition of human recombinant COX-2 assessed as production of PGE2 using arachidonic acid as a substrate preincubated for 60 mins followed by substrate addition and measured after 2 mins by ELISA analysis
T3 sequence (P35354 whole entry): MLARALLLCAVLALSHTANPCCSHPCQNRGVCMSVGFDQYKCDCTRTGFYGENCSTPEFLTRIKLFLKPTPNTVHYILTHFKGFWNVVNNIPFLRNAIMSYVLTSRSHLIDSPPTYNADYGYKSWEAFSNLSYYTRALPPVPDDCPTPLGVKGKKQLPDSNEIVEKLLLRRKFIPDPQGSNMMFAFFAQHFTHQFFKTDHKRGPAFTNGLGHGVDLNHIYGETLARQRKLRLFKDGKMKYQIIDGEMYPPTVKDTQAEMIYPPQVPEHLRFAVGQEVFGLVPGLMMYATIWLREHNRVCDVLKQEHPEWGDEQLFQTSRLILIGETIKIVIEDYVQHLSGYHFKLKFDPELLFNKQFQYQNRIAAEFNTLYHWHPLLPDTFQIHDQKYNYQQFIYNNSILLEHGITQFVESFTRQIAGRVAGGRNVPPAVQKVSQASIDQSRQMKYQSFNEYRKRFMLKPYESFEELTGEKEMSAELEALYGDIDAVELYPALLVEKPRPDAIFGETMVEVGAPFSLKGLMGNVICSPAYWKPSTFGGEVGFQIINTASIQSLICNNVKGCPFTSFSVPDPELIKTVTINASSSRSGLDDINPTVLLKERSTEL

SMILES | Activity [1] | Activity (RAW264.7 [2]) [%] | inhibition in vivo at 30 mg/kg (Mus musculus [4]) [%] | inhibition in vivo at 30 mg/kg (Mus musculus [5]) [%] | Activity (Mus musculus [6]) [mg] | inhibition at 100 µM (RAW264.7 [8]) [%] | inhibition at 1 µM (RAW264.7 [9]) [%] | Ratio [10] | IC50 [11] [nM] | inhibition [12] [%] | inhibition [14] [%] | inhibition at 0.1 µM (RAW264.7 [15]) [%] | solubility [16] | Activity (RAW264.7 [17]) | inhibition at 0.01 µM (RAW264.7 [18]) [%] | inhibition [19] [%] | inhibition [20] [%] | inhibition at 10 µM (RAW264.7 [21]) [%] | Activity (Mus musculus [22]) | IC50 [23] [nM] | also measured
Cc1ccc(-c2cc(C)n(S(=O)(=O)Oc3ccccc3Cl)n2)cc1 | Non-Toxic | 80 | 48.5 | 27 | 9.96 | 29.4 | 23.8 | > 189 | > 100000 | 33 | 26 | 23.6 | Insoluble | 80% | 12.6 | 20 | 24 | 22 | 15 | 530 | Activity [3]: Non-Toxic; Activity [7]: Non-Toxic; LD50 at 336 h [13]: > 2000 mg/kg
Cc1ccc(-c2cc(C(F)(F)F)nn2-c2ccc(S(N)(=O)=O)cc2)cc1 [CELECOXIB] |  |  |  | 28.2 | 9.79 | 50.2 | 16.5 |  |  |  |  | 19.6 | Insoluble | 80% | 16.5 |  |  | 14.8 | 18.63 |  | 
Cc1ccc(-c2cc(C)n(S(=O)(=O)Oc3ccccc3)n2)cc1 |  |  | 50.7 | 15.2 | 11.57 | 31.6 | 19.3 | 455 | 500 | 70 | 72 | 18.1 | Insoluble |  | 10.5 | 34 | 55 | 21.1 | 14.38 | 1.1 | LD50 at 336 h [13]: > 2000 mg/kg
Cc1ccc(-c2cc(C)n(S(=O)(=O)Oc3ccc(I)cc3)n2)cc1 | Non-Toxic | 40 | 17.2 | 27 | 9.96 |  |  | 10500 | 96600 | 48 | 41 |  | Insoluble | Non-Toxic |  | 17 | 35 |  | 24.13 | 9.2 | Activity [3]: Non-Toxic; Activity [7]: Non-Toxic

Reference: ChEMBL document CHEMBL4808246 (Bioorg Med Chem, 2021)
